Reference: patent publication US20260042764A1, “COMPOSITIONS AND METHODS FOR INHIBITION OF KRAS” (TheRas, Inc., priority 2022, published 2026)

What was measured:
[1] = biological target: T1, Avi-KRAS WT (2-169) GTP/RAF1 RBD-3xFLAG (51-131) (Homo sapiens, UniProt P01116); test: Raf1-KRAS WT-GTP disruption HTRF assay (Biological Example 3); assay type: binding; settings: KRAS WT, GTP-loaded
T1 construct: Avi-KRAS WT (2-169)
Method in brief: (§1)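 An HTRF assay measured disruption of 50 nM Avi-KRAS (2-169)-GTP (WT, G12C, G12D or G12V) bound to RAF1 RBD-3xFLAG (51-131). Buffer was Tris pH 7.5 with 5 mM MgCl2 and 10% DMSO. Compounds (30–0.005 μM, 3-fold, 10 points) were incubated 1 h at room temperature, and activity is given as % of DMSO.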

[2] = biological target: T2, Avi-KRAS G12D (2-169) GTP/RAF1 RBD-3xFLAG (51-131) (Homo sapiens, UniProt P01116, G12D); test: Raf1-KRAS G12D-GTP disruption HTRF assay (Biological Example 3); assay type: binding; settings: KRAS G12D, GTP-loaded
T2 construct: Avi-KRAS G12D (2-169)
Method in brief: as §1

GP2d cells (KRAS G12D) = test: Cell-based pERK HTRF assay in GP2d cell (Biological Example 2); settings: GP2d (KRAS G12D) cells
Method in brief: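 GP2d (KRAS G12D) cells were plated in DMEM/10% FBS and treated the next day for 60 min with compounds. Dosing used 9-point half-log series starting at 1 μM or 100 nM in 0.25% DMSO. Lysates were read by HTRF pERK (d2/Eu cryptate antibodies) after 4–24 h at room temperature, with excitation at 320 nm and emission at 615 nm.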

T1 sequence (P01116 2-169 isoform P01116-2): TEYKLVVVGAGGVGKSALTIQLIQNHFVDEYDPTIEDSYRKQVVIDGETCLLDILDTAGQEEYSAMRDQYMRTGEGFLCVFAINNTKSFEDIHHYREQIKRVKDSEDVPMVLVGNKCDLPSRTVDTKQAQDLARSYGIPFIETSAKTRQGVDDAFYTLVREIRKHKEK
T2 sequence (P01116 2-169 isoform P01116-2 G12D): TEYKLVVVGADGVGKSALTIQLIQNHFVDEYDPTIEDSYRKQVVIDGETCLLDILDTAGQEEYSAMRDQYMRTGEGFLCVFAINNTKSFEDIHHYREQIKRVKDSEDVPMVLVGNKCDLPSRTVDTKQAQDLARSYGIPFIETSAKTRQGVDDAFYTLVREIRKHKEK

SMILES	IC50 [1]	IC50 [2]	IC50 (GP2d cells (KRAS G12D); GP2d)	IC50 (GP2d cells (KRAS G12D); GP2d, pERK HTRF, class symbols)	IC50 (GP2d cells (KRAS G12D); GP2d, pERK HTRF)	IC50 (GP2d cells (KRAS G12D))	IC50 (GP2d cells (KRAS G12D); pERK HTRF)
CC(=O)N1CC[C@H](N(CCF)c2nc(OC[C@@]34CCCN3C[C@H](F)C4)nc3c(F)c(-c4ccc(F)c5sc(N)c(C#N)c45)c(C(F)(F)F)cc23)C1 (atropisomer, axis not shown) [Compound 622]	100 to 1000 nM	≤ 100 nM	< 100 nM	< 100 nM	–	–	–
N#Cc1c(N)sc2c(F)ccc(-c3c(C(F)(F)F)cc4c(N5C[C@H]6C[C@@H]5CO6)nc(OC[C@@]56CCCN5C[C@H](F)C6)nc4c3F)c12 (single isomer, unassigned) [Compound 287]	100 to 1000 nM	100 to 1000 nM	< 100 nM	–	< 100 nM	–	–
CCN(c1nc(OC[C@@]23CCCN2C[C@H](F)C3)nc2c(F)c(-c3ccc(F)c4sc(N)c(C#N)c34)c(C(F)(F)F)cc12)[C@H]1C[C@@H]2CN(C)C(=O)N2C1 (atropisomer, axis not shown) [Compound 605]	100 to 1000 nM	100 to 1000 nM	< 100 nM	< 100 nM	–	–	–
CCN(c1nc(OC[C@@]23CCCN2C[C@H](F)C3)nc2c(F)c(-c3ccc(F)c4sc(N)c(C#N)c34)c(C(F)(F)F)cc12)[C@H]1CCN(C(=O)O[C@@H]2CCOC2)C1 (atropisomer, axis not shown) [Compound 683]	100 to 1000 nM	≤ 100 nM	< 100 nM	< 100 nM	–	–	–
CCN(c1nc(OC[C@@]23CCCN2C[C@H](F)C3)nc2c(F)c(-c3ccc(F)c4sc(N)c(C#N)c34)c(C(F)(F)F)cc12)[C@H]1CC(=O)N(C2CC2)C1 (atropisomer, axis not shown) [Compound 615]	100 to 1000 nM	≤ 100 nM	< 100 nM	< 100 nM	–	–	–
CCN(c1nc(OC[C@@]23CCCN2C[C@H](F)C3)nc2c(F)c(-c3ccc(F)c4sc(N)c(C#N)c34)c(C(F)(F)F)cc12)[C@H]1CC(=O)N(CC(F)F)C1 (atropisomer, axis not shown) [Compound 613]	100 to 1000 nM	≤ 100 nM	< 100 nM	< 100 nM	–	–	–
CC(=O)N1C[C@H](N(C)c2nc(OC[C@@]34CCCN3C[C@H](F)C4)nc3c(F)c(-c4ccc(F)c5sc(N)c(C#N)c45)c(C(F)(F)F)cc23)C[C@@H]1C [Compound 298]	100 to 1000 nM	1000 to 10000 nM	< 100 nM	–	< 100 nM	–	–
[2H]C1([2H])O[C@@H]2C[C@H]1N(c1nc(OC[C@@]34CCCN3C[C@H](F)C4)nc3c(F)c(-c4ccc(F)c5sc(N)c(C#N)c45)c(C(F)(F)F)cc13)C2 [Compound 371]	100 to 1000 nM	100 to 1000 nM	< 100 nM	–	< 100 nM	–	–
CCN(c1nc(OC[C@@]23CCCN2C[C@H](F)C3)nc2c(F)c(-c3ccc(F)c4sc(N)c(C#N)c34)c(C(F)(F)F)cc12)[C@H]1CCN(C(=O)c2ccns2)C1 (atropisomer, axis not shown) [Compound 726]	100 to 1000 nM	100 to 1000 nM	< 100 nM	< 100 nM	–	–	–
N#Cc1c(N)sc2c(F)ccc(-c3c(C(F)(F)F)cc4c(N5C[C@H]6C[C@@H]5CO6)nc(OC[C@@]56CCCN5C[C@H](F)C6)nc4c3F)c12 [Compound 253, 2-amino-7-fluoro-4-[8-fluoro-2-[[(2R,8S)-2-fluoro-1,2,3,5,6,7-hexahydropyrrolizin-8-yl]methoxy]-4-[(1R,4R)-2-oxa-5-azabicyclo[2.2.1]heptan-5-yl]-6-(trifluoromethyl)quinazolin-7-yl]benzothiophene-3-carbonitrile]	100 to 1000 nM	100 to 1000 nM	< 100 nM	–	< 100 nM	–	–
CCN(c1nc(OC[C@@]23CCCN2C[C@H](F)C3)nc2c(F)c(-c3ccc(F)c4sc(N)c(C#N)c34)c(C(F)(F)F)cc12)[C@H]1CCN(C(=O)N2CCN(C(C)=O)CC2)C1 (atropisomer, axis not shown) [Compound 619]	100 to 1000 nM	100 to 1000 nM	< 100 nM	< 100 nM	–	–	–
CCN(c1nc(OC[C@@]23CCCN2C[C@H](F)C3)nc2c(F)c(-c3ccc(F)c4sc(N)c(C#N)c34)c(C(F)(F)F)cc12)[C@@H]1CC(=O)N(C2CC2)C1 (atropisomer, axis not shown) [Compound 703]	1000 to 10000 nM	1000 to 10000 nM	–	< 100 nM	–	< 100 nM	–
CCN(c1nc(OC[C@@]23CCCN2C[C@H](F)C3)nc2c(F)c(-c3ccc(F)c4sc(N)c(C#N)c34)c(C(F)(F)F)cc12)[C@H]1C[C@H]2CCC(=O)N2C1 (atropisomer, axis not shown; (aR)) [Compound 573, 2-amino-4-((S)-4-(ethyl((2S,7aR)-5-oxohexahydro-1H-pyrrolizin-2-yl)amino)-8-fluoro-2-(((2R,7aS)-2-fluorotetrahydro-1H-pyrrolizin-7a(5H)-yl)methoxy)-6-(trifluoromethyl)quinazolin-7-yl)-7-fluorobenzo[b]thiophene-3-carbonitrile]	≤ 100 nM	≤ 100 nM	< 100 nM	< 100 nM	–	–	–
C[C@@H]1[C@H](N(C)c2nc(OC[C@@]34CCCN3C[C@H](F)C4)nc3c(F)c(-c4ccc(F)c5sc(N)c(C#N)c45)c(C(F)(F)F)cc23)CCN1C(=O)C1CC1 (atropisomer, axis not shown) [Compound 333]	100 to 1000 nM	100 to 1000 nM	< 100 nM	–	–	–	< 100 nM
N#Cc1c(N)sc2c(F)ccc(-c3c(C(F)(F)F)cc4c(N(C5CC5)[C@H]5CCS(=O)(=O)C5)nc(OC[C@@]56CCCN5C[C@H](F)C6)nc4c3F)c12 [Compound 702]	> 10000 nM	1000 to 10000 nM	< 100 nM	< 100 nM	–	–	–
Cc1c(C(=O)N2CCOCC2)nn2c1CN(c1nc(OCC34CCCN3CC(F)C4)nc3c(F)c(-c4ccc(F)c5sc(N)c(C#N)c45)c(C(F)(F)F)cc13)CC2 (centres unmarked) [Compound 741]	100 to 1000 nM	100 to 1000 nM	< 100 nM	< 100 nM	–	–	–
CCN(c1nc(OC[C@@]23CCCN2C[C@H](F)C3)nc2c(F)c(-c3ccc(F)c4sc(N)c(C#N)c34)c(C(F)(F)F)cc12)[C@H]1CCN(C(=O)[C@@H]2C[C@@H]2C)C1 (atropisomer, axis not shown) [Compound 689]	100 to 1000 nM	100 to 1000 nM	< 100 nM	< 100 nM	–	–	–
